Data on four compounds can be found in patent EP0428132A1, “Pradimicin derivatives” (Bristol-Myers Squibb Company, priority 1989, dated 1991).

Values after ≈ are worked out from the molar mass of the structure shown.

For data set [1], the system named is FA21436. Kind of data set: In vitro antifungal activity, serial agar dilution method (Table 1). The format is cell-based, Asoergukkys flavus. Here is the method:
(§1) The inoculum size was adjusted to 10⁶ cells/ml, and a volume of approximately 0.003 ml of fungal suspension was applied to the surface of the antibiotic containing agar plates with a multiinoculator. After incubation, the lowest concentration of antibiotic causing virtually complete inhibition of fungal growth was determined as the minimum inhibitory concentration (MIC). Table 1. [table]

The test system of data set [2] is Candida albicans IAM4888. Described as above. To be noted: Sabouraud dextrose agar (pH 7.0), 28°C for 40 hours. It is filed as cell-based. As to the method:
as §1

Data set [3] concerns Cryptococcus neoformans IAM4514. The data set is described as above. It is filed as cell-based. As to conditions: Sabouraud dextrose agar (pH 7.0), 28°C for 40 hours. Here is the method: as §1
Data set [4] concerns Blastomyces dermatidis D40. Described as above. It is filed as cell-based. Here is the method:
as §1

The test system of data set [5] is Sprotricosis schenckii IFO8158. The description is as above. The format is cell-based. Here is the method: as §1
In data set [6] the test system is Petriellidium boydii IFO8078. The data set is described as above. The format is cell-based. As to conditions: Sabouraud dextrose agar (pH 7.0), 28°C for 40 hours. As to the method:
as §1

The subject of data set [7] is Aspergillus fumigatus IAM2530. Described as above. The format is cell-based. To be noted: Sabouraud dextrose agar (pH 7.0), 28°C for 40 hours. Here is the method: as §1
The test system of data set [8] is Trichophyton mentagrophytes #4329. The data set is described as above. The format is cell-based. As to conditions: Sabouraud dextrose agar (pH 7.0), 28°C for 40 hours. Here is the method:
as §1

Data set [9] relates to Trichophyton mentagrophytes D155. The data set is described as above. The format is cell-based. As to conditions: Sabouraud dextrose agar (pH 7.0), 28°C for 40 hours. As to the method:
as §1

Data set [10] deals with Aspergillus fumigatus IAM2034. The description is as above. It is filed as cell-based. To be noted: Sabouraud dextrose agar (pH 7.0), 28°C for 40 hours. Here is the method:
as §1

In data set [11] the test system is Cryptococcus neoformans D49. Described as above. The format is cell-based. As to the method:
as §1

Data set [12] concerns Candida albicans A9540. The description is as above. The format is cell-based. As to conditions: Sabouraud dextrose agar (pH 7.0), 28°C for 40 hours. Here is the method: as §1
Data set [13] relates to Fusarium moniliforme A2284. The description is as above. As to conditions: Sabouraud dextrose agar (pH 7.0), 28°C for 40 hours. The format is cell-based. As to the method: as §1
Data set [14] has as its system Mucor spinosus IFO5317. The data set is described as above. To be noted: Sabouraud dextrose agar (pH 7.0), 28°C for 40 hours. The format is cell-based. Here is the method: as §1
Data set [15] deals with Saccharomyces cerevisiae A25803. Kind of data set: In vitro antifungal activity, serial agar dilution method (Table 1a). As to conditions: YM agar (pH 7.0, Difco), 30°C for 2 days (yeast) or 4 days (filamentous fungi), read-out: MICs, Saccharomyces cerevisiae A25803. The format is cell-based. As to the method: (§2) The inoculum size was adjusted to 10⁶ cells/ml, and a volume of approximately 0.003 ml of fungal suspension was applied to the surface of the antibiotic containing agar plates with a multiinoculator. After incubation, the lowest concentration of antibiotic causing virtually complete inhibition of fungal growth was determined as the minimum inhibitory concentration (MIC).
For orientation: Agar dilution tests growth on a series of plates holding different concentrations.

For data set [16], the system named is Candida pseudotropicalis A25802. Described as above. It is filed as cell-based. To be noted: Kluyveromyces marxianus, YM agar (pH 7.0, Difco), 30°C for 2 days (yeast) or 4 days (filamentous fungi), read-out: MICs, Candida pseudotropicalis A25802. Here is the method: as §2
The subject of data set [17] is Candida albicans A25578. Described as above. It is filed as cell-based. To be noted: A25578, YM agar (pH 7.0, Difco), 30°C for 2 days (yeast) or 4 days (filamentous fungi), read-out: MICs, Candida albicans A25578. As to the method: as §2
Data set [18] relates to Candida tropicalis A25809. The data set is described as above. To be noted: YM agar (pH 7.0, Difco), 30°C for 2 days (yeast) or 4 days (filamentous fungi), read-out: MICs, Candida tropicalis A25809. The format is cell-based. As to the method: as §2
Data set [19] deals with Candida tropicalis A25812. The description is as above. It is filed as cell-based. As to conditions: A25812, YM agar (pH 7.0, Difco), 30°C for 2 days (yeast) or 4 days (filamentous fungi), read-out: MICs, Candida tropicalis A25812. Here is the method:
as §2

For data set [20], the system named is Microsporum gypseum WW1107. The data set is described as above. As to conditions: Nannizzia gypsea, YM agar (pH 7.0, Difco), 30°C for 2 days (yeast) or 4 days (filamentous fungi), read-out: MICs, Microsporum gypseum WW1107. The format is cell-based. As to the method: as §2
Data set [21] concerns Candida paratropicalis A25825. The data set is described as above. It is filed as cell-based. To be noted: YM agar (pH 7.0, Difco); 30°C for 2 days (yeast) or 4 days (filamentous fungi); read-out: MICs, Candida paratropicalis A25825. As to the method: as §2
In data set [22] the test system is Microsporum canis WW10218. Described as above. The format is cell-based. To be noted: WW10218, pH 7, read-out: MICs, Microsporum canis WW10218. As to the method:
as §2

Data set [23] concerns Candida albicans A9540. The data set is described as above. The format is cell-based. To be noted: A9540, YM agar (pH 7.0, Difco), 30°C for 2 days (yeast) or 4 days (filamentous fungi), read-out: MICs, Candida albicans A9540. As to the method:
as §2

Data set [24] relates to Cryptococcus neoformans A15053. The description is as above. It is filed as cell-based. To be noted: A15053, YM agar (pH 7.0, Difco), 30°C for 2 days (yeast) or 4 days (filamentous fungi), read-out: MICs, Cryptococcus neoformans A15053. Here is the method: as §2
For data set [25], the system named is Trichophyton rubrum A26761. Described as above. As to conditions: A26761, pH 7, read-out: MICs, Trichophyton rubrum A26761. It is filed as cell-based. Here is the method:
as §2

For data set [26], the system named is Trichophyton mentagrophytes A26771. The data set is described as above. To be noted: A26771, YM agar (pH 7.0, Difco), 30°C for 2 days (yeast) or 4 days (filamentous fungi), read-out: MICs, Trichophyton mentagrophytes A26771. It is filed as cell-based. Here is the method:
as §2

Data set [27] can be described thus: Water solubility, protocol I (PBS, HPLC). As to conditions: Method I: PBS without CaCl₂ and MgCl₂.6H₂O. It is filed as physicochemical. Here is the method:
The supernatant (2 µL) was analyzed by HPLC using the conditions specified for each compound in the Experimental Section. […] When not soluble, an additional amount of PBS (x µL) was added, sonicated, and centrifuged. When visibly soluble, the solution (2 µL) was injected to HPLC and the peak area was used for the known concentration of the sample.

Where [28] appears, read: Sabouraud dextrose agar (pH 7.0), 28°C for 40 hours.

For orientation: solubility means the concentration that dissolves in the medium under given conditions. A lower solubility goes with little dissolved substance.

Regarding “N-(sodiosulfomethyl) pradimicin A [Ex. 8]”, in [1] (setting [28]), the “MIC, Asoergukkys flavus FA21436” value amounted to 6.3 µg/mL. The “MIC, Candida albicans IAM4888” value in data set [2] stood at 3.1 µg/mL. Further, the “MIC, Cryptococcus neoformans IAM4514” value in [3] turned out to be 0.8 µg/mL. For the same compound, in data set [4] (setting [28]), the “MIC, Blastomyces dermatidis D40” value amounted to 1.6 µg/mL. In data set [5] (setting [28]), the “MIC, Sprotricosis schenckii IFO8158” value came out at 1.6 µg/mL. In addition, the “MIC, Petriellidium boydii IFO8078” value in [6] came to 6.3 µg/mL. For the same compound, the “MIC, Aspergillus fumigatus IAM2530” value in data set [7] was determined as 1.6 µg/mL. Further, the “MIC, Trichophyton mentagrophytes #4329” value in data set [8] came out at 3.1 µg/mL. Further, in data set [9], the “MIC, Trichophyton mentagrophytes D155” value turned out to be 6.3 µg/mL. For the same compound, the “MIC, Aspergillus fumigatus IAM2034” value in data set [10] stood at 3.1 µg/mL. Further, the “MIC, Cryptococcus neoformans D49” value in data set [11] (setting [28]) was 0.8 µg/mL. In addition, in data set [12], the “MIC, Candida albicans A9540” value stood at 6.3 µg/mL. For the same compound, the “MIC, Fusarium moniliforme A2284” value in data set [13] was 3.1 µg/mL. In data set [14], the “MIC, Mucor spinosus IFO5317” value is greater than 50.0 µg/mL. Besides, the “Partial Inhibition, Mucor spinosus IFO5317” value in data set [14] (value in parentheses = Partial Inhibition) was 6.3 µg/mL.
Turning to `COc1cc(O)c2c(c1)C(=O)c1c(cc3c(c1O)-c1c(cc(C)c(C(=O)N[C@H](C)C(=O)O)c1O)[C@H](O[C@@H]1O[C@H](C)[C@H](N(C)C(=O)NS(=O)(=O)c4ccc(C)cc4)[C@H](O)[C@H]1O)[C@H]3O)C2=O` [Ex. 19, N-(p-toluenesulfonylcarbamyl) pradimicin B], the MIC in data set [15] stood at 3.2 µg/mL (≈ 3.53 µM); in data set [16], 3.2 µg/mL (≈ 3.53 µM); in data set [17] it was 12.5 µg/mL (≈ 13.8 µM); in data set [18] it was 6.3 µg/mL (≈ 6.95 µM); in [19], 12.5 µg/mL (≈ 13.8 µM); in data set [20], 50 µg/mL (≈ 55.2 µM). Also, the MIC is 25 µg/mL (≈ 27.6 µM) in data set [21]; 12.5 µg/mL (≈ 13.8 µM) in data set [22]; 12.5 µg/mL (≈ 13.8 µM) in data set [23]; 6.3 µg/mL (≈ 6.95 µM) in data set [24]; 50 µg/mL (≈ 55.2 µM) in data set [25]; 50 µg/mL (≈ 55.2 µM) in data set [26].
Turning to `C=CCN(C)[C@@H]1[C@H](O[C@@H]2OC[C@@H](O)[C@H](O)[C@H]2O)[C@@H](O)[C@H](O[C@H]2c3cc(C)c(C(=O)N[C@H](C)C(=O)O)c(O)c3-c3c(cc4c(c3O)C(=O)c3cc(OC)cc(O)c3C4=O)[C@@H]2O)O[C@@H]1C` [Ex. 22, N-(Allyl) pradimicin A], the MIC in data set [16] was 3.2 µg/mL (≈ 3.63 µM); in data set [17], 3.2 µg/mL (≈ 3.63 µM); in [19] it was greater than 50 µg/mL; in [20], greater than 50 µg/mL; in data set [21] it was greater than 50 µg/mL; in data set [22], 1.6 µg/mL (≈ 1.82 µM). Also, the MIC in data set [23] is greater than 50 µg/mL; in data set [24], 0.4 µg/mL (≈ 0.454 µM); in data set [26], greater than 50 µg/mL. In [27], this compound showed a solubility of 5000 µg/mL (≈ 5680 µM).
With `COc1cc(O)c2c(c1)C(=O)c1c(cc3c(c1O)-c1c(cc(C)c(C(=O)N[C@H](C)C(=O)O)c1O)[C@H](O[C@@H]1O[C@H](C)[C@H](N(C)C/C=C/C(=O)O)[C@H](O[C@@H]4OC[C@@H](O)[C@H](O)[C@H]4O)[C@H]1O)[C@H]3O)C2=O` [Ex. 13, N-(trans-3-carboxy-2-propenyl) pradimicin A], the MIC is 100 µg/mL (≈ 108 µM) in data set [1] (40 h, pH 7, read-out: MIC, Asoergukkys flavus FA21436); 50 µg/mL (≈ 54.1 µM) in data set [2] (Candida albicans, IAM4888); 25 µg/mL (≈ 27 µM) in data set [3] (Cryptococcus neoformans, IAM4514); greater than 100 µg/mL in data set [4] (Blastomyces, D40, 40 h, pH 7, read-out: MIC, Blastomyces dermatidis D40); 100 µg/mL (≈ 108 µM) in data set [5] (40 h, pH 7, read-out: MIC, Sprotricosis schenckii IFO8158); greater than 100 µg/mL in data set [6] (Scedosporium boydii, IFO8078). In addition, the MIC in data set [7] (Aspergillus fumigatus, IAM2530) was 100 µg/mL (≈ 108 µM); in data set [8] (Trichophyton mentagrophytes), greater than 100 µg/mL; in data set [9] (Trichophyton mentagrophytes, D155) it was greater than 100 µg/mL; in data set [10] (Aspergillus fumigatus, IAM2034) it was 100 µg/mL (≈ 108 µM); in data set [11] (Cryptococcus neoformans, D49, 40 h, pH 7, read-out: MIC, Cryptococcus neoformans D49), 50 µg/mL (≈ 54.1 µM); in data set [12] (Candida albicans, A9540), 100 µg/mL (≈ 108 µM). Also, the MIC was greater than 100 µg/mL in data set [13] (Fusarium verticillioides, A2284) and greater than 100 µg/mL in [14] (Mucor spinosus, IFO5317).
